Measurements published in patent US9150546B2, “Triazine derivative and pharmaceutical composition comprising the same” (SHIONOGI & CO., LTD., priority 2009, dated 2015).

What follows are compounds tested against human P2X3 receptor (Homo sapiens (Human), UniProt P56373) (assay: P2X3 receptor inhibition, ATP-evoked Fluo-3 fluorescence (FDSS 3000)). Conditions: C6BU-1 cell transfected with human P2X3 receptor gene.
Assay type: cell-based

Chain of human P2X3 receptor (P56373 whole entry): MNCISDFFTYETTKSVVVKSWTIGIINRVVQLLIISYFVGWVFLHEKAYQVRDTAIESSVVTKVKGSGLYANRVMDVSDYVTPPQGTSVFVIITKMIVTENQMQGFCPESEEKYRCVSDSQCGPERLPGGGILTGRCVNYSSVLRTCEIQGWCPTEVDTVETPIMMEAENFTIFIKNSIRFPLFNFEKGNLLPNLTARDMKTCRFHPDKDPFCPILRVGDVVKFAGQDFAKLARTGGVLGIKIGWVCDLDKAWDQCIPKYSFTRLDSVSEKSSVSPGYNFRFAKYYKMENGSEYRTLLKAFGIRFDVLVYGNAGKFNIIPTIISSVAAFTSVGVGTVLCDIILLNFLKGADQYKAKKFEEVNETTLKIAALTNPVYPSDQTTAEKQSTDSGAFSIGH

Compound	IC50
Cc1ccc(Cn2c(Nc3cccc(C(F)(F)F)c3)nc(=O)n(C(C)C)c2=O)cc1 [I-021]	197 nM
CCCCn1c(=O)nc(Nc2cccc(C(F)(F)F)c2)n(Cc2ccc(C)cc2)c1=O [I-029]	595 nM
Cc1ccc(Cn2c(Nc3cccc(C(F)(F)F)c3)nc(=O)n(C(C)(C)C)c2=O)cc1 [I-097]	505 nM
Cc1ccc(Cn2c(Nc3ccc(Oc4ccccc4)cc3)nc(=O)n(C(C)C)c2=O)cc1 [I-116]	484 nM
Cc1ccc(Cn2c(Nc3cccc(Cl)c3)nc(=O)n(C(C)C)c2=O)cc1 [I-117]	387 nM
CSc1cccc(Nc2nc(=O)n(C(C)C)c(=O)n2Cc2ccc(C)cc2)c1 [I-118]	231 nM
Cc1ccc(Cn2c(Nc3ccc4[nH]ccc4c3)nc(=O)n(C(C)C)c2=O)cc1 [I-123]	815 nM
CC(C)n1c(=O)nc(Nc2cccc(C(F)(F)F)c2)n(Cc2ccc(F)cc2)c1=O [I-126]	689 nM
CC(C)n1c(=O)nc(Nc2ccc(Oc3ccccc3)cc2)n(Cc2ccc(F)cc2)c1=O [I-128]	840 nM
CSc1cccc(Nc2nc(=O)n(C(C)C)c(=O)n2Cc2ccc(F)cc2)c1 [I-130]	953 nM
CC(C)Oc1ccc(Nc2nc(=O)n(C(C)C)c(=O)n2Cc2ccc(F)cc2)cc1 [I-133]	339 nM
CCn1c(=O)nc(Nc2cccc(C(F)(F)F)c2)n(Cc2ccc(F)cc2)c1=O [I-138]	619 nM
CCn1c(=O)nc(Nc2ccc(Oc3ccccc3)cc2)n(Cc2ccc(F)cc2)c1=O [I-141]	685 nM
CC(C)n1c(=O)nc(Nc2cccc(C(F)(F)F)c2)n(Cc2ccc(Cl)cn2)c1=O [I-162]	379 nM
CC(C)n1c(=O)nc(Nc2ccc(Oc3ccccc3)cc2)n(Cc2ccc(Cl)cn2)c1=O [I-164]	860 nM
CC(C)n1c(=O)nc(Nc2cccc(OC(F)(F)F)c2)n(Cc2ccc(F)cc2)c1=O [I-181]	985 nM
CC(C)n1c(=O)nc(Nc2cccc(F)c2)n(Cc2ccc(F)cc2)c1=O [I-182]	714 nM
CC(C)Oc1ccc(Nc2nc(=O)n(C(C)C)c(=O)n2Cc2ccc(F)cc2)cc1Cl [I-203]	110 nM
CC(C)Oc1ccc(Nc2nc(=O)n(C(C)C)c(=O)n2Cc2ccc(F)cc2)cc1C(F)(F)F [I-204]	558 nM
Cc1ccc(Cn2c(Nc3ccc(OC(C)C)cc3)nc(=O)n(C(C)C)c2=O)cc1F [I-217]	268 nM
Cc1ccc(Cn2c(Nc3ccc(OC(C)C)cc3)nc(=O)n(C(C)C)c2=O)cc1[N+](=O)[O-] [I-218]	505 nM
COC(=O)c1ccc(Nc2nc(=O)n(C(C)C)c(=O)n2Cc2ccc(F)cc2)cc1 [I-221]	276 nM

Compound	IC50
CC(Nc1nc(=O)n(C(C)C)c(=O)n1Cc1ccc(F)cc1)c1ccc(Cl)cc1 (centres unmarked) [I-223]	909 nM
CC(C)Oc1ccc(Nc2nc(=O)n(C(C)C)c(=O)n2Cc2ccc(F)cc2)cc1C#N [I-227]	970 nM
CC(C)Oc1ccc(Nc2nc(=O)n(C(C)C)c(=O)n2Cc2ccc(Cl)nc2)cc1Cl [I-235]	985 nM
COCCOc1ccc(Nc2nc(=O)n(C(C)C)c(=O)n2Cc2ccc(Cl)cc2)cc1Cl [I-237]	230 nM
COC(=O)c1ccc(Nc2nc(=O)n(C(C)C)c(=O)n2Cc2ccc(F)cc2)cc1Cl [I-238]	658 nM
CC(C)n1c(=O)nc(Nc2ccc(OC3CCOCC3)c(Cl)c2)n(Cc2ccc(Cl)cc2)c1=O [I-239]	116 nM
CCOC(=O)COc1ccc(Nc2nc(=O)n(C(C)C)c(=O)n2Cc2ccc(Cl)cc2)cc1Cl [I-241]	447 nM
CC(C)Oc1ccc(Nc2nc(=O)n(C(C)C)c(=O)n2Cc2ccc(Cl)cc2)cc1C#N [I-245]	168 nM
CC(C)n1c(=O)nc(Nc2ccc3[nH]c(=O)oc3c2)n(Cc2ccc(Cl)cc2)c1=O [I-246]	996 nM
CC(C)CNC(=O)c1ccc(Nc2nc(=O)n(C(C)C)c(=O)n2Cc2ccc(Cl)cc2)cc1 [I-256]	867 nM
CC(C)n1c(=O)nc(Nc2ccc(C(=O)NC3CC3)cc2)n(Cc2ccc(Cl)cc2)c1=O [I-257]	682 nM
CC(C)n1c(=O)nc(Nc2ccc(C(=O)NCC3CC3)cc2)n(Cc2ccc(Cl)cc2)c1=O [I-258]	683 nM
CC(C)n1c(=O)nc(Nc2ccc(C(=O)Nc3ccccc3)cc2)n(Cc2ccc(Cl)cc2)c1=O [I-266]	861 nM
COc1cc(Cl)ccc1Cn1c(Nc2ccc(OC(C)C)c(F)c2)nc(=O)n(C(C)C)c1=O [I-270]	271 nM
CC(C)Oc1ccc(Nc2nc(=O)n(CC3CC3)c(=O)n2Cc2ccc(Cl)cc2)cc1F [I-271]	32 nM
CC(C)Oc1ccc(Nc2nc(=O)n(CCN(C)C)c(=O)n2Cc2ccc(Cl)cc2)cc1F [I-272]	180 nM
CC(C)Oc1ccc(Nc2nc(=O)n(CC(C)(CO)CO)c(=O)n2Cc2ccc(Cl)cc2)cc1F [I-274]	9 nM
CC(C)Oc1ccc(Nc2nc(=O)n(CC3CCOCC3)c(=O)n2Cc2ccc(Cl)cc2)cc1F [I-275]	21 nM
CC(C)Oc1ccc(Nc2nc(=O)n(CC(CO)CO)c(=O)n2Cc2ccc(Cl)cc2)cc1F [I-276]	12 nM
O=c1nc(Nc2ccc(-c3ccon3)cc2)n(Cc2ccc(Cl)cc2)c(=O)n1CCO [I-278]	931 nM
COCCn1c(=O)nc(Nc2ccc(OC(C)C)c(F)c2)n(Cc2ccc(Cl)cc2)c1=O [I-280]	30 nM
CC(C)Oc1ccc(Nc2nc(=O)n(CCN3CCOCC3)c(=O)n2Cc2ccc(Cl)cc2)cc1F [I-281]	12 nM

Compound	IC50
CC(C)Oc1ccc(Nc2nc(=O)n(CCN3CCCCC3)c(=O)n2Cc2ccc(Cl)cc2)cc1F [I-282]	27 nM
CC(C)Oc1ccc(Nc2nc(=O)n(CC(F)(F)C(=O)O)c(=O)n2Cc2ccc(Cl)cc2)cc1F [I-283]	19 nM
CC(C)Oc1ccc(Nc2nc(=O)n(C(CO)CO)c(=O)n2Cc2ccc(Cl)cc2)cc1F [I-286]	277 nM
O=c1nc(Nc2ccc(-c3ccon3)cc2)n(Cc2ccc(Cl)cc2)c(=O)n1CCN1CCOCC1 [I-287]	222 nM
CC(C)Oc1ccc(Nc2nc(=O)n(CCN)c(=O)n2Cc2ccc(Cl)cc2)cc1F [I-290]	266 nM
CC(C)Oc1ccc(Nc2nc(=O)n(CC(=O)N(C)C)c(=O)n2Cc2ccc(Cl)cc2)cc1F [I-293]	351 nM
CNC(=O)Cn1c(=O)nc(Nc2ccc(OC(C)C)c(F)c2)n(Cc2ccc(Cl)cc2)c1=O [I-294]	40 nM
CC(C)Oc1ccc(Nc2nc(=O)n(CC(N)=O)c(=O)n2Cc2ccc(Cl)cc2)cc1F [I-295]	46 nM
CC(C)Oc1ccc(Nc2nc(=O)n(CCC(=O)N(C)C)c(=O)n2Cc2ccc(Cl)cc2)cc1F [I-297]	45 nM
CC(C)Oc1ccc(Nc2nc(=O)n(Cc3ccccn3)c(=O)n2Cc2ccc(Cl)cc2)cc1F [I-300]	25 nM
COc1ccc(Nc2nc(=O)n(CCO)c(=O)n2Cc2ccc(Cl)cc2)cc1F [I-305]	946 nM
CCOc1ccc(Nc2nc(=O)n(CCO)c(=O)n2Cc2ccc(Cl)cc2)cc1 [I-307]	250 nM
O=c1nc(Nc2cccc(OC(F)(F)F)c2)n(Cc2ccc(Cl)cc2)c(=O)n1CCO [I-309]	357 nM
CC(C)Oc1ccc(Nc2nc(=O)n(C(F)F)c(=O)n2Cc2ccc(Cl)cc2)cc1F [I-310]	389 nM
O=c1nc(Nc2ccc(N3CCCCC3)cc2)n(Cc2ccc(Cl)cc2)c(=O)n1CCO [I-311]	142 nM
CCOc1ccc(Nc2nc(=O)n(CCO)c(=O)n2Cc2ccc(Cl)cc2)cc1F [I-312]	104 nM
O=c1nc(Nc2cccc(C(F)(F)F)c2)n(Cc2ccc(Cl)cc2)c(=O)n1CCO [I-313]	178 nM
O=c1nc(Nc2cccc(-c3ccon3)c2)n(Cc2ccc(Cl)cc2)c(=O)n1CCO [I-314]	555 nM
O=c1nc(Nc2ccc(C(F)(F)F)c(F)c2)n(Cc2ccc(Cl)cc2)c(=O)n1CCO [I-315]	183 nM
O=c1nc(Nc2ccc(F)c(F)c2)n(Cc2ccc(Cl)cc2)c(=O)n1CCO [I-316]	712 nM
CC(C)Oc1ccc(Nc2nc(=O)n(CCCN)c(=O)n2Cc2ccc(Cl)cc2)cc1F [I-317]	137 nM
CCCOc1ccc(Nc2nc(=O)n(CCO)c(=O)n2Cc2ccc(Cl)cc2)cc1F [I-321]	33 nM

Compound	IC50
O=c1nc(Nc2ccc(OC3CCCC3)cc2)n(Cc2ccc(Cl)cc2)c(=O)n1CCO [I-322]	112 nM
CC(C)COc1ccc(Nc2nc(=O)n(CCO)c(=O)n2Cc2ccc(Cl)cc2)cc1F [I-323]	148 nM
O=c1nc(Nc2ccc(OC3CCOCC3)cc2)n(Cc2ccc(Cl)cc2)c(=O)n1CCO [I-324]	309 nM
CC(C)Oc1ccc(Nc2nc(=O)n(CCO)c(=O)[nH]2)cc1F [I-325]	665 nM
CC(C)Cc1ccc(Nc2nc(=O)n(CCO)c(=O)n2Cc2ccc(Cl)cc2)cc1 [I-328]	124 nM
O=c1nc(Nc2ccc(OC(F)F)cc2)n(Cc2ccc(Cl)cc2)c(=O)n1CCO [I-329]	266 nM
N#CCOc1ccc(Nc2nc(=O)n(CCO)c(=O)n2Cc2ccc(Cl)cc2)cc1 [I-330]	594 nM
CC(C)Oc1ccc(Nc2nc(=O)n(CC(C)(C)CN)c(=O)n2Cc2ccc(Cl)cc2)cc1F [I-331]	66 nM
CC(C)Oc1ccc(Nc2nc(=O)n(CC(C)(C)CO)c(=O)n2Cc2ccc(Cl)cc2)cc1F [I-332]	8 nM
CC(C)Oc1ccc(Nc2nc(=O)n(CCO)c(=O)n2Cc2ccc(F)cc2)cc1F [I-333]	192 nM
O=c1nc(Nc2ccc(Oc3ccccc3)cc2)n(Cc2ccc(Cl)cc2)c(=O)n1CCO [I-334]	99 nM
CC(C)Oc1ccc(Nc2nc(=O)n(CC3(CO)CC3)c(=O)n2Cc2ccc(Cl)cc2)cc1F [I-335]	7 nM
COC(=O)Cn1c(=O)nc(Nc2ccc(OC(C)C)c(F)c2)n(Cc2ccc(Cl)cc2)c1=O [I-338]	53 nM
CC(C)Oc1ccc(Nc2nc(=O)n(CCO)c(=O)n2Cc2ccc(F)c(F)c2)cc1F [I-339]	775 nM
CC(C)Oc1ccc(Nc2nc(=O)n(CCO)c(=O)n2Cc2ccc(F)cc2F)cc1F [I-340]	336 nM
COc1ccc(Cn2c(=O)nc(Nc3ccc(OC(C)C)c(F)c3)n(Cc3ccc(Cl)cc3)c2=O)cc1 [I-343]	21 nM
CCCCc1ccc(Nc2nc(=O)n(CCO)c(=O)n2Cc2ccc(Cl)cc2)cc1 [I-344]	128 nM
C=CCn1c(=O)nc(Nc2ccc(OC(C)C)c(F)c2)n(Cc2ccc(Cl)cc2)c1=O [I-346]	16 nM
CC(C)Oc1ccc(Nc2nc(=O)n(CCO)c(=O)n2Cc2ccc([N+](=O)[O-])cc2)cc1F [I-347]	251 nM
CCCn1c(=O)nc(Nc2ccc(OC(C)C)c(F)c2)n(Cc2ccccc2)c1=O [I-349]	113 nM
